Measured values: patent publication EP4748847A1, “PEPTIDE COMPLEX HAVING VEGFR -2 AGONIST ACTIVITY” (Peptidream Inc, priority 2023, dated 2025)
*1 amine or outer side, *2 acyl side, *3 side chain or, on linkers, in order; H or OH if unused. Where a SMILES comes first, the peptide text is derived from it. Bridges are numbered along the chain shown (N, C = ends). Roman numbers before positions name the chains, in order. [ ]: non-standard residue; d: D form. X1 = O=C(OCCOCCOCCOCCOCCOCCOCCOCCOCCOCCOCCOCCOCCOCCOCCOCCOC(=O)[*:2])[*:1]; X2 = O=C(OCCOCCOCCOCCOCCOCCOCCOCCOCCOCCOCCOCCOC(=O)[*:2])[*:1]; Phe(4-guanidino) = N=C(N)Nc1ccc(C[C@H](N)C(=O)O)cc1; hTyr = N[C@@H](CCc1ccc(O)cc1)C(=O)O; Hyp = O=C(O)[C@@H]1C[C@@H](O)CN1; tBuAla = CC(C)(C)C[C@H](N)C(=O)O; Tle = CC(C)(C)[C@H](N)C(=O)O

Tests used:
VEGFR-2 = biological target: T1, VEGFR-2 (Homo sapiens, UniProt P35968); assay: pVEGFR AlphaLISA assay (VEGFR-2 phosphorylation, p-Tyr1175) in HUVECs; type: cell-based; settings: 10 minutes stimulation, % activity, maximum VEGF165a signal = 100%, unstimulated = 0%
T1 construct: endogenous in cells; host or cells: HUVEC
Protocol: To evaluate the VEGFR-2 activation ability of the VEGFR-2 agonist peptides of the present invention, VEGFR-2 phosphorylation was verified. HUVECs were cultured using EGM™ -2 Endothelial Cell Growth Medium-2 BulletKit (LONZA; CC-3162). After detaching cells using Tryple (Thermo Fisher Scientific), they were seeded into a 96-well PDL-coated plate (Corning: 354461) at a density of 24,000 cells per well and cultured for 2 days. For starvation, the medium was replaced with EBM-2 medium (LONZA) containing 0.5% FBS (Thermo Fisher Scientific), 0.1% heparin (included with the above LONZA CC-3162), and 0.1% gentamicin (Nacalai), and the cells were cultured for 18 hours. Subsequently, Recombinant Human VEGF165a Protein (R&D Systems) or the peptide was added, and the cells were cultured in a CO2 incubator at 37°C. After 10 minutes of stimulation, cells were lysed using the Lysis Buffer included in the AlphaLISA SureFire Ultra VEGFR-2 (p-Tyr1175) Assay Kit (PerkinElmer) to lyse the cells. The procedure was performed according to the kit protocol, and signal detection was performed using a SpectraMax Paradigm multimode microplate reader (Molecular Devices). The obtained signals were analyzed using GraphPad Prism, and % activity was calculated with the maximum signal induced by VEGF165a set as 100% and the unstimulated control as 0%.
The VEGF165a concentration was evaluated at five points (0.08, 0.31, 1.25, 5, 20 nM) using 1/4-fold dilutions starting from 20 nM to determine the maximum value (100%). Peptide concentrations tested were: 3.2, 16, 80 nM for dimer structure number 1; 10, 100 nM for dimer structures numbers 2-41; and 1.25, 5, 20 nM for dimer structures numbers 42-57. […]
Peptides showing 50% or more activity at 10 nM were designated 2-A, those showing 50% or more activity at 100 nM were designated 2-B, and those showing 1% or more but less than 50% activity at 100 nM were designated 2-C.
Peptides showing 50% or more activity at 1.25 nM were designated 3-A, those showing 50% or more activity at 5 nM were designated 3-B, those showing 50% or more activity at 20 nM were designated 3-C, and those showing 1% or more but less than 50% activity at 20 nM were designated 3-D.

ERK = assay: pERK AlphaLISA assay (ERK phosphorylation, p-Erk1/2 Thr202/Tyr204) in HUVEC lysate; type: cell-based, human; settings: HUVEC lysate of the pVEGFR assay; % activity, maximum VEGF165a signal = 100%, unstimulated = 0%; peptide 10, 100 nM (dimer structures 2-41)
Protocol: To evaluate the intracellular signaling activation ability of the VEGFR-2 agonist peptides of the present invention, ERK phosphorylation was verified. Using the lysate employed in the pVEGFR AlphaLISA assay, the assay was performed according to the protocol of the AlphaLISA SureFire Ultra p-Erk1/2 (Thr202/Tyr204) Assay Kit (PerkinElmer). Signal detection was performed using a SpectraMax Paradigm multimode microplate reader (Molecular Devices). The obtained signals were analyzed using GraphPad Prism, and % activity was calculated with the maximum signal induced by VEGF165a set as 100% and the unstimulated control as 0%.
The VEGF165a concentration was evaluated at five points (0.08, 0.31, 1.25, 5, 20 nM) using 1/4-fold dilutions starting from 20 nM to determine the maximum value (100%). Peptide concentrations tested were: 3.2, 16, 80 nM for dimer structure […], 100 nM for dimer structures numbers 2-41; and 1.25, 5, 20 nM for dimer structures numbers 42-57.
For % activity, peptides showing ≥50% activity at 3.2 nM were designated 1-A, those showing ≥50% activity at 16 nM were designated 1-B, those showing ≥50% activity at 80 nM were designated 1-C, and those showing ≥1% but <50% activity at 80 nM were designated 1-D. […]

[1] = peptide 1.25, 5, 20 nM (dimer structures 42-57)

T1 sequence (P35968 20-1356): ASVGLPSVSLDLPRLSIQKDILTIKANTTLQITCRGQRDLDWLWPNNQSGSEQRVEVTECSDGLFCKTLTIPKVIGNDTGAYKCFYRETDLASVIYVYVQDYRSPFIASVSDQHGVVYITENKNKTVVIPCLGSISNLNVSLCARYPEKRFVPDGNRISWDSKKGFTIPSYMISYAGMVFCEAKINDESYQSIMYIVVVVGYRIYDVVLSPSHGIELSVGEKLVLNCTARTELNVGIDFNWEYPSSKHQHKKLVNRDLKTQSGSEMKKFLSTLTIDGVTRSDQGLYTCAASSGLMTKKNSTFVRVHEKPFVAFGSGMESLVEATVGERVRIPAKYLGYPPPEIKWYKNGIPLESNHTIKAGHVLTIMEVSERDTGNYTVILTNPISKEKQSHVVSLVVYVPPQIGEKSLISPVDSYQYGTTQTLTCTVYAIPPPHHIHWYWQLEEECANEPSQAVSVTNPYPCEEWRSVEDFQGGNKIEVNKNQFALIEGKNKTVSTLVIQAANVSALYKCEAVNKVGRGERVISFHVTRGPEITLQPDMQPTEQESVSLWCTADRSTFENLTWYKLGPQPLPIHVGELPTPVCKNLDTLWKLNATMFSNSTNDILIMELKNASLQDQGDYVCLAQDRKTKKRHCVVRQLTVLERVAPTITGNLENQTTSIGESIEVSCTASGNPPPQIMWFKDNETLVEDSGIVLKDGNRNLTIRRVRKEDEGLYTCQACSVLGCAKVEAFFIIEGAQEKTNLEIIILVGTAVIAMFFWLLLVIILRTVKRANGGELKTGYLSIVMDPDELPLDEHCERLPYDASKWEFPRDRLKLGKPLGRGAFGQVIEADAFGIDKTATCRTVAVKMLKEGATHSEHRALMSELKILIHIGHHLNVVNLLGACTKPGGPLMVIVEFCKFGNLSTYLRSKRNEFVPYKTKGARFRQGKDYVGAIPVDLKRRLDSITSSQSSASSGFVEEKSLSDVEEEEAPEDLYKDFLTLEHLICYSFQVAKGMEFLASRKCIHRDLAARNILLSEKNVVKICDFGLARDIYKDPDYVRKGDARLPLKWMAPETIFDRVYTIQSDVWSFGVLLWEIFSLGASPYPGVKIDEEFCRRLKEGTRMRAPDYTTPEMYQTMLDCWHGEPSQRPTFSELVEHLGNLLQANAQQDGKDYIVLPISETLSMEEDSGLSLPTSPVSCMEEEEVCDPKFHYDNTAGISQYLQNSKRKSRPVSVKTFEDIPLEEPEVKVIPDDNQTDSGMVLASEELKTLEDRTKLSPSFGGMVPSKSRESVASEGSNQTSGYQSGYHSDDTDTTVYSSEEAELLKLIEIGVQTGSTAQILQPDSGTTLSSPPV

Row | Structure (SMILES) | pVEGFR2 Assay Results (VEGFR-2; peptide 10, 100 nM (dimer structures 2-41)) | pERK Assay Results (ERK) | pVEGFR2 Assay Results (VEGFR-2; [1])
1 | CC(C)[C@@H]1NC(=O)CNC(=O)[C@H](CCCCNC(=O)OCCOCCOCCOCCOCCOCCOCCOCCOCCOCCOCCOCCOC(=O)NCCCC[C@@H]2NC(=O)[C@H](C(C)C)NC(=O)[C@H](CC(=O)O)NC(=O)[C@H](C(C)C)NC(=O)[C@H](Cc3c[nH]c4ccccc34)NC(=O)[C@H](Cc3c[nH]c4ccccc34)NC(=O)CSC[C@@H](C(=O)NCC(N)=O)NC(=O)[C@H](CC(=O)O)NC(=O)[C@H](CCc3ccc(O)cc3)NC(=O)[C@H](Cc3ccccc3)NC(=O)[C@H](Cc3ccc(O)cc3)NC(=O)[C@H](CC(N)=O)NC(=O)[C@H](C(C)C)NC(=O)CNC2=O)NC(=O)[C@H](C(C)C)NC(=O)[C@H](CC(=O)O)NC(=O)[C@H](C(C)C)NC(=O)[C@H](Cc2c[nH]c3ccccc23)NC(=O)[C@H](Cc2c[nH]c3ccccc23)NC(=O)CSC[C@@H](C(=O)NCC(N)=O)NC(=O)[C@H](CC(=O)O)NC(=O)[C@H](CCc2ccc(O)cc2)NC(=O)[C@H](Cc2ccccc2)NC(=O)[C@H](Cc2ccc(O)cc2)NC(=O)[C@H](CC(N)=O)NC1=O [compound 37] (I: {CH2CO}-WWVDVKGVNYF[hTyr]DCG-NH2 / II: {CH2CO}-WWVDVKGVNYF[hTyr]DCG-NH2; linker I:6-II:6 via X2; thioether I:N-I:14, II:N-II:14) | 2-A (50% or more activity at 10 nM) | 2-B (50% or more activity at 100 nM) | –
2 | CC(C)[C@@H]1NC(=O)[C@H](CC(=O)O)NC(=O)[C@H](C(C)(C)C)NC(=O)[C@H](Cc2c[nH]c3ccccc23)NC(=O)[C@H](Cc2c[nH]c3ccccc23)NC(=O)CSC[C@@H](C(=O)NCC(N)=O)NC(=O)[C@H](CC(=O)O)NC(=O)[C@H](CCc2ccc(O)cc2)NC(=O)[C@H](Cc2ccc(NC(=N)N)cc2)NC(=O)[C@H](Cc2ccc(O)cc2)NC(=O)[C@H](CC(C)(C)C)NC(=O)[C@H](CC(=O)O)NC(=O)[C@H](CC(=O)O)NC(=O)[C@H](CCCCNC(=O)OCCOCCOCCOCCOCCOCCOCCOCCOCCOCCOCCOCCOCCOCCOCCOCCOC(=O)NCCCC[C@@H]2NC(=O)[C@H](C(C)C)NC(=O)[C@H](CC(=O)O)NC(=O)[C@H](C(C)(C)C)NC(=O)[C@H](Cc3c[nH]c4ccccc34)NC(=O)[C@H](Cc3c[nH]c4ccccc34)NC(=O)CSC[C@@H](C(=O)NCC(N)=O)NC(=O)[C@H](CC(=O)O)NC(=O)[C@H](CCc3ccc(O)cc3)NC(=O)[C@H](Cc3ccc(NC(=N)N)cc3)NC(=O)[C@H](Cc3ccc(O)cc3)NC(=O)[C@H](CC(C)(C)C)NC(=O)[C@H](CC(=O)O)NC(=O)[C@H](CC(=O)O)NC2=O)NC1=O [compound 53] (I: {CH2CO}-WW[Tle]DVKDD[tBuAla]Y[Phe(4-guanidino)][hTyr]DCG-NH2 / II: {CH2CO}-WW[Tle]DVKDD[tBuAla]Y[Phe(4-guanidino)][hTyr]DCG-NH2; linker I:6-II:6 via X1; thioether I:N-I:14, II:N-II:14) | – | – | 3-B (50% or more activity at 5 nM)
3 | CC(C)[C@@H]1NC(=O)[C@H](CC(=O)O)NC(=O)[C@H](C(C)(C)C)NC(=O)[C@H](Cc2c[nH]c3ccccc23)NC(=O)[C@H](Cc2c[nH]c3ccccc23)NC(=O)CSC[C@@H](C(=O)NCC(N)=O)NC(=O)[C@@H]2C[C@@H](O)CN2C(=O)[C@H](CCc2ccc(O)cc2)NC(=O)[C@H](Cc2ccc(NC(=N)N)cc2)NC(=O)[C@H](Cc2ccc(O)cc2)NC(=O)[C@H](CC(C)(C)C)NC(=O)[C@H](CC(=O)O)NC(=O)[C@H](CC(=O)O)NC(=O)[C@H](CCCCNC(=O)OCCOCCOCCOCCOCCOCCOCCOCCOCCOCCOCCOCCOC(=O)NCCCC[C@@H]2NC(=O)[C@H](C(C)C)NC(=O)[C@H](CC(=O)O)NC(=O)[C@H](C(C)(C)C)NC(=O)[C@H](Cc3c[nH]c4ccccc34)NC(=O)[C@H](Cc3c[nH]c4ccccc34)NC(=O)CSC[C@@H](C(=O)NCC(N)=O)NC(=O)[C@@H]3C[C@@H](O)CN3C(=O)[C@H](CCc3ccc(O)cc3)NC(=O)[C@H](Cc3ccc(NC(=N)N)cc3)NC(=O)[C@H](Cc3ccc(O)cc3)NC(=O)[C@H](CC(C)(C)C)NC(=O)[C@H](CC(=O)O)NC(=O)[C@H](CC(=O)O)NC2=O)NC1=O [compound 54] (I: {CH2CO}-WW[Tle]DVKDD[tBuAla]Y[Phe(4-guanidino)][hTyr][Hyp]CG-NH2 / II: {CH2CO}-WW[Tle]DVKDD[tBuAla]Y[Phe(4-guanidino)][hTyr][Hyp]CG-NH2; linker I:6-II:6 via X2; thioether I:N-I:14, II:N-II:14) | – | – | 3-B (50% or more activity at 5 nM)
4 | CC(C)[C@@H]1NC(=O)[C@H](CC(=O)O)NC(=O)[C@H](CCc2ccc(O)cc2)NC(=O)[C@H](Cc2c[nH]c3ccccc23)NC(=O)[C@H](Cc2c[nH]c3ccccc23)NC(=O)CSC[C@@H](C(=O)NCC(N)=O)NC(=O)[C@H](CC(=O)O)NC(=O)[C@H](CCc2ccc(O)cc2)NC(=O)[C@H](Cc2ccc(NC(=N)N)cc2)NC(=O)[C@H](Cc2ccc(O)cc2)NC(=O)[C@H](CC(C)(C)C)NC(=O)[C@H](CC(=O)O)NC(=O)[C@H](CC(=O)O)NC(=O)[C@H](CCCCNC(=O)OCCOCCOCCOCCOCCOCCOCCOCCOCCOCCOCCOCCOC(=O)NCCCC[C@@H]2NC(=O)[C@H](C(C)C)NC(=O)[C@H](CC(=O)O)NC(=O)[C@H](CCc3ccc(O)cc3)NC(=O)[C@H](Cc3c[nH]c4ccccc34)NC(=O)[C@H](Cc3c[nH]c4ccccc34)NC(=O)CSC[C@@H](C(=O)NCC(N)=O)NC(=O)[C@H](CC(=O)O)NC(=O)[C@H](CCc3ccc(O)cc3)NC(=O)[C@H](Cc3ccc(NC(=N)N)cc3)NC(=O)[C@H](Cc3ccc(O)cc3)NC(=O)[C@H](CC(C)(C)C)NC(=O)[C@H](CC(=O)O)NC(=O)[C@H](CC(=O)O)NC2=O)NC1=O [compound 57] (I: {CH2CO}-WW[hTyr]DVKDD[tBuAla]Y[Phe(4-guanidino)][hTyr]DCG-NH2 / II: {CH2CO}-WW[hTyr]DVKDD[tBuAla]Y[Phe(4-guanidino)][hTyr]DCG-NH2; linker I:6-II:6 via X2; thioether I:N-I:14, II:N-II:14) | – | – | 3-D (1% or more but less than 50% activity at 20 nM)
